One data set can be described thus: clinical. The settings on record: human, in vivo, iv, 20 mg/m2, 5-Days total (AUClast) IV.
The test system of data set [1] is sickle cell disease model. To be noted: sickle cell disease model in baboons; Am. J. Hematol. 1985; cited from earlier work.

For `Nc1ncn([C@H]2C[C@H](O)[C@@H](CO)O2)c(=O)n1` [decitabine, 5-aza-2′-deoxycytidine], the AUC(0-t) in the data set “clinical” worked out at 852 ng·h/mL.
On to `O=C1NC(O)CCN1[C@@H]1O[C@H](CO)[C@@H](O)[C@H]1O` (some centres unmarked) [Tetrahydrouridine], for which the “effect on the potency of decitabine” value in data set [1] is reported as “improve the potency of decitabine”.

What is called AUC(0-t) is the area under the concentration-time curve up to a stated or last time point. High values mean high exposure, low ones low exposure.

(Values after patent publication US11660310B2, “Low dose combination CDA substrate drug/cedazuridine with extended administration” (Otsuka Pharmaceutical Co., Ltd., priority 2018, dated 2023).)
